# From ChEMBL document CHEMBL3044764, “Synthesis and herbicidal activities of 2-cyano-3-benzylaminoacrylates containing thiazole moiety” (2010)
# Tested on: Brassica napus
# Test: Post-emergence herbicidal activity against Brassica napus (oilseed rape) after 10 days
# Assay type: functional
SMILES,LD50,LD90
CCOCCOC(=O)/C(C#N)=C(\NCc1ccc(OCc2cnc(Cl)s2)cc1)C(C)C,73.01 g/ha,185.4 g/ha
COCCOC(=O)/C(C#N)=C(\NCc1ccc(OCc2cnc(Cl)s2)cc1)C(C)C,53.48 g/ha,146.04 g/ha
CCOCCOC(=O)/C(C#N)=C(/CC)NCc1ccc(OCc2cnc(Cl)s2)cc1,83.96 g/ha,311.43 g/ha
CCOCCOC(=O)/C(C#N)=C(\NCc1ccc(Cl)nc1)SC,8.84 g/ha,133.77 g/ha
CCOCCOC(=O)/C(C#N)=C(\NCc1ccc(OCc2cnc(Cl)s2)cc1)SC,49.14 g/ha,197.66 g/ha
CCOCCOC(=O)/C(C#N)=C(\NCc1ccc(OCc2cnc(Cl)s2)c(OC)c1)C(C)C,131.42 g/ha,484.4 g/ha
CCOCCOC(=O)/C(C#N)=C(\NCc1ccc(OCc2cnc(Cl)s2)c(OC)c1)SC,507.9 g/ha,2548.33 g/ha
CC/C(NCc1ccc(OCc2cnc(Cl)s2)c(OC)c1)=C(\C#N)C(=O)OCCOC,237.1 g/ha,817.35 g/ha

# Tested on: Brassica napus
# Test: Post-emergence herbicidal activity against Brassica napus (oilseed rape) at 375 g/ha after 10 days
# Assay type: functional
row,SMILES,Activity
1,CCOCCOC(=O)/C(C#N)=C(\NCc1ccc(OCc2cnc(Cl)s2)cc1)C(C)C,51.2%
2,COCCOC(=O)/C(C#N)=C(\NCc1ccc(OCc2cnc(Cl)s2)cc1)C(C)C,92.8%
3,CCOCCOC(=O)/C(C#N)=C(/CC)NCc1ccc(OCc2cnc(Cl)s2)cc1,40%
4,CCOCCOC(=O)/C(C#N)=C(\NCc1ccc(Cl)nc1)SC,100%
5,CCOCCOC(=O)/C(C#N)=C(\NCc1ccc(OCc2cnc(Cl)s2)cc1)SC,95.1%
6,CCOCCOC(=O)/C(C#N)=C(\NCc1ccc(OCc2cnc(Cl)s2)c(OC)c1)C(C)C,73.5%
7,CC/C(NCc1ccc(OCc2cnc(Cl)s2)c(OC)c1)=C(\C#N)C(=O)OCCOC,42.9%

# Tested on: Brassica napus
# Test: Post-emergence herbicidal activity against Brassica napus (oilseed rape) at 750 g/ha after 10 days
# Assay type: functional
row,SMILES,Activity
1,CCOCCOC(=O)/C(C#N)=C(\NCc1ccc(OCc2cnc(Cl)s2)cc1)C(C)C,100%
2,COCCOC(=O)/C(C#N)=C(\NCc1ccc(OCc2cnc(Cl)s2)cc1)C(C)C,100%
3,CCOCCOC(=O)/C(C#N)=C(/CC)NCc1ccc(OCc2cnc(Cl)s2)cc1,100%
4,CCOCCOC(=O)/C(C#N)=C(\NCc1ccc(Cl)nc1)SC,100%
5,CCOCCOC(=O)/C(C#N)=C(\NCc1ccc(OCc2cnc(Cl)s2)cc1)SC,100%
6,CCOCCOC(=O)/C(C#N)=C(\NCc1ccc(OCc2cnc(Cl)s2)c(OC)c1)C(C)C,100%
7,CC/C(NCc1ccc(OCc2cnc(Cl)s2)c(OC)c1)=C(\C#N)C(=O)OCCOC,46.4%

# Tested on: Amaranthus retroflexus
# Test: Post-emergence herbicidal activity against Amaranthus retroflexus at 375 g/ha after 10 days
# Assay type: functional
row,SMILES,Activity
1,CCOCCOC(=O)/C(C#N)=C(\NCc1ccc(OCc2cnc(Cl)s2)cc1)C(C)C,47.2%
2,COCCOC(=O)/C(C#N)=C(\NCc1ccc(OCc2cnc(Cl)s2)cc1)C(C)C,98.1%
3,CCOCCOC(=O)/C(C#N)=C(/CC)NCc1ccc(OCc2cnc(Cl)s2)cc1,24.5%
4,CCOCCOC(=O)/C(C#N)=C(\NCc1ccc(Cl)nc1)SC,100%
5,CCOCCOC(=O)/C(C#N)=C(\NCc1ccc(OCc2cnc(Cl)s2)cc1)SC,55.6%
6,CCOCCOC(=O)/C(C#N)=C(\NCc1ccc(OCc2cnc(Cl)s2)c(OC)c1)C(C)C,59.3%
7,CC/C(NCc1ccc(OCc2cnc(Cl)s2)c(OC)c1)=C(\C#N)C(=O)OCCOC,0%

# Tested on: Amaranthus retroflexus
# Test: Post-emergence herbicidal activity against Amaranthus retroflexus at 750 g/ha after 10 days
# Assay type: functional
row,SMILES,Activity
1,CCOCCOC(=O)/C(C#N)=C(\NCc1ccc(OCc2cnc(Cl)s2)cc1)C(C)C,100%
2,COCCOC(=O)/C(C#N)=C(\NCc1ccc(OCc2cnc(Cl)s2)cc1)C(C)C,100%
3,CCOCCOC(=O)/C(C#N)=C(/CC)NCc1ccc(OCc2cnc(Cl)s2)cc1,84.4%
4,CCOCCOC(=O)/C(C#N)=C(\NCc1ccc(Cl)nc1)SC,100%
5,CCOCCOC(=O)/C(C#N)=C(\NCc1ccc(OCc2cnc(Cl)s2)cc1)SC,91.6%
6,CCOCCOC(=O)/C(C#N)=C(\NCc1ccc(OCc2cnc(Cl)s2)c(OC)c1)C(C)C,87.8%
7,CC/C(NCc1ccc(OCc2cnc(Cl)s2)c(OC)c1)=C(\C#N)C(=O)OCCOC,32.9%

# Tested on: Amaranthus retroflexus
# Test: Pre-emergence herbicidal activity against Amaranthus retroflexus at 1500 g/ha after 10 days
# Assay type: functional
row,SMILES,Activity
1,CCOCCOC(=O)/C(C#N)=C(\NCc1ccc(OCc2cnc(Cl)s2)cc1)C(C)C,0%
2,COCCOC(=O)/C(C#N)=C(\NCc1ccc(OCc2cnc(Cl)s2)cc1)C(C)C,0%
3,CCOCCOC(=O)/C(C#N)=C(/CC)NCc1ccc(OCc2cnc(Cl)s2)cc1,0%
4,CCOCCOC(=O)/C(C#N)=C(\NCc1ccc(Cl)nc1)SC,35.1%
5,CCOCCOC(=O)/C(C#N)=C(\NCc1ccc(OCc2cnc(Cl)s2)cc1)SC,0%
6,CCOCCOC(=O)/C(C#N)=C(\NCc1ccc(OCc2cnc(Cl)s2)c(OC)c1)C(C)C,0%
7,CCOCCOC(=O)/C(C#N)=C(\NCc1ccc(OCc2cnc(Cl)s2)c(OC)c1)SC,0%
8,CC/C(NCc1ccc(OCc2cnc(Cl)s2)c(OC)c1)=C(\C#N)C(=O)OCCOC,0%

# Tested on: Medicago sativa
# Test: Pre-emergence herbicidal activity against Medicago sativa (alfalfa) at 1500 g/ha after 10 days
# Assay type: functional
row,SMILES,Activity
1,CCOCCOC(=O)/C(C#N)=C(\NCc1ccc(OCc2cnc(Cl)s2)cc1)C(C)C,0%
2,COCCOC(=O)/C(C#N)=C(\NCc1ccc(OCc2cnc(Cl)s2)cc1)C(C)C,0%
3,CCOCCOC(=O)/C(C#N)=C(/CC)NCc1ccc(OCc2cnc(Cl)s2)cc1,0%
4,CCOCCOC(=O)/C(C#N)=C(\NCc1ccc(Cl)nc1)SC,0%
5,CCOCCOC(=O)/C(C#N)=C(\NCc1ccc(OCc2cnc(Cl)s2)cc1)SC,0%
6,CCOCCOC(=O)/C(C#N)=C(\NCc1ccc(OCc2cnc(Cl)s2)c(OC)c1)C(C)C,0%
7,CCOCCOC(=O)/C(C#N)=C(\NCc1ccc(OCc2cnc(Cl)s2)c(OC)c1)SC,10%
8,CC/C(NCc1ccc(OCc2cnc(Cl)s2)c(OC)c1)=C(\C#N)C(=O)OCCOC,2%

# Tested on: Brassica napus
# Test: Pre-emergence herbicidal activity against Brassica napus (oilseed rape) at 1500 g/ha after 10 days
# Assay type: functional
row,SMILES,Activity
1,CCOCCOC(=O)/C(C#N)=C(\NCc1ccc(OCc2cnc(Cl)s2)cc1)C(C)C,0%
2,COCCOC(=O)/C(C#N)=C(\NCc1ccc(OCc2cnc(Cl)s2)cc1)C(C)C,0%
3,CCOCCOC(=O)/C(C#N)=C(/CC)NCc1ccc(OCc2cnc(Cl)s2)cc1,0%
4,CCOCCOC(=O)/C(C#N)=C(\NCc1ccc(Cl)nc1)SC,90.7%
5,CCOCCOC(=O)/C(C#N)=C(\NCc1ccc(OCc2cnc(Cl)s2)cc1)SC,10%
6,CCOCCOC(=O)/C(C#N)=C(\NCc1ccc(OCc2cnc(Cl)s2)c(OC)c1)C(C)C,0%
7,CCOCCOC(=O)/C(C#N)=C(\NCc1ccc(OCc2cnc(Cl)s2)c(OC)c1)SC,10%
8,CC/C(NCc1ccc(OCc2cnc(Cl)s2)c(OC)c1)=C(\C#N)C(=O)OCCOC,0%

# Tested on: Amaranthus retroflexus
# Test: Post-emergence herbicidal activity against Amaranthus retroflexus at 1500 g/ha after 10 days
# Assay type: functional
row,SMILES,Activity
1,CCOCCOC(=O)/C(C#N)=C(\NCc1ccc(OCc2cnc(Cl)s2)cc1)C(C)C,91.6%
2,COCCOC(=O)/C(C#N)=C(\NCc1ccc(OCc2cnc(Cl)s2)cc1)C(C)C,91.6%
3,CCOCCOC(=O)/C(C#N)=C(/CC)NCc1ccc(OCc2cnc(Cl)s2)cc1,96.3%
4,CCOCCOC(=O)/C(C#N)=C(\NCc1ccc(Cl)nc1)SC,100%
5,CCOCCOC(=O)/C(C#N)=C(\NCc1ccc(OCc2cnc(Cl)s2)cc1)SC,100%
6,CCOCCOC(=O)/C(C#N)=C(\NCc1ccc(OCc2cnc(Cl)s2)c(OC)c1)C(C)C,100%
7,CCOCCOC(=O)/C(C#N)=C(\NCc1ccc(OCc2cnc(Cl)s2)c(OC)c1)SC,97.4%
8,CC/C(NCc1ccc(OCc2cnc(Cl)s2)c(OC)c1)=C(\C#N)C(=O)OCCOC,100%

# Tested on: Brassica napus
# Test: Post-emergence herbicidal activity against Brassica napus (oilseed rape) at 1500 g/ha after 10 days
# Assay type: functional
row,SMILES,Activity
1,CCOCCOC(=O)/C(C#N)=C(\NCc1ccc(OCc2cnc(Cl)s2)cc1)C(C)C,100%
2,COCCOC(=O)/C(C#N)=C(\NCc1ccc(OCc2cnc(Cl)s2)cc1)C(C)C,100%
3,CCOCCOC(=O)/C(C#N)=C(/CC)NCc1ccc(OCc2cnc(Cl)s2)cc1,100%
4,CCOCCOC(=O)/C(C#N)=C(\NCc1ccc(Cl)nc1)SC,100%
5,CCOCCOC(=O)/C(C#N)=C(\NCc1ccc(OCc2cnc(Cl)s2)cc1)SC,100%
6,CCOCCOC(=O)/C(C#N)=C(\NCc1ccc(OCc2cnc(Cl)s2)c(OC)c1)C(C)C,100%
7,CCOCCOC(=O)/C(C#N)=C(\NCc1ccc(OCc2cnc(Cl)s2)c(OC)c1)SC,86.3%
8,CC/C(NCc1ccc(OCc2cnc(Cl)s2)c(OC)c1)=C(\C#N)C(=O)OCCOC,96.6%

# Tested on: Medicago sativa
# Test: Post-emergence herbicidal activity against Medicago sativa (alfalfa) at 1500 g/ha after 10 days
# Assay type: functional
row,SMILES,Activity
1,CCOCCOC(=O)/C(C#N)=C(\NCc1ccc(OCc2cnc(Cl)s2)cc1)C(C)C,15%
2,COCCOC(=O)/C(C#N)=C(\NCc1ccc(OCc2cnc(Cl)s2)cc1)C(C)C,30%
3,CCOCCOC(=O)/C(C#N)=C(/CC)NCc1ccc(OCc2cnc(Cl)s2)cc1,10%
4,CCOCCOC(=O)/C(C#N)=C(\NCc1ccc(Cl)nc1)SC,85%
5,CCOCCOC(=O)/C(C#N)=C(\NCc1ccc(OCc2cnc(Cl)s2)cc1)SC,0%
6,CCOCCOC(=O)/C(C#N)=C(\NCc1ccc(OCc2cnc(Cl)s2)c(OC)c1)C(C)C,68.5%
7,CCOCCOC(=O)/C(C#N)=C(\NCc1ccc(OCc2cnc(Cl)s2)c(OC)c1)SC,49.2%
8,CC/C(NCc1ccc(OCc2cnc(Cl)s2)c(OC)c1)=C(\C#N)C(=O)OCCOC,46.8%

# Target: Photosystem II protein D1 (Spinacia oleracea) (UniProt P69560)
# Test: Inhibition of photosystem II in Spinacia oleracea (spinach) chloroplast assessed as inhibition of hill reaction at 1 ug/ml relative to control
row,SMILES,inhibition
1,CCOCCOC(=O)/C(C#N)=C(\NCc1ccc(OCc2cnc(Cl)s2)cc1)C(C)C,72.5%
2,COCCOC(=O)/C(C#N)=C(\NCc1ccc(OCc2cnc(Cl)s2)cc1)C(C)C,82%
3,CCOCCOC(=O)/C(C#N)=C(/CC)NCc1ccc(OCc2cnc(Cl)s2)cc1,70.2%
4,CCOCCOC(=O)/C(C#N)=C(\NCc1ccc(Cl)nc1)SC,75.8%
5,CCOCCOC(=O)/C(C#N)=C(\NCc1ccc(OCc2cnc(Cl)s2)cc1)SC,72.5%
6,CCOCCOC(=O)/C(C#N)=C(\NCc1ccc(OCc2cnc(Cl)s2)c(OC)c1)C(C)C,93.8%
7,CCOCCOC(=O)/C(C#N)=C(\NCc1ccc(OCc2cnc(Cl)s2)c(OC)c1)SC,87.1%
8,CC/C(NCc1ccc(OCc2cnc(Cl)s2)c(OC)c1)=C(\C#N)C(=O)OCCOC,70.2%
